Assay results taken from patent US6372770B1, “Benzoxazoles” (Euro-Celtique, S.A., priority 1994, dated 2002).
Like-named read-outs stand apart in the source and are kept apart here.

Legend:
PDE IV [1] = tested on: T1, PDE IV; assay: Type IV PDE inhibition, hydrolysis of [3H]-cyclic AMP; format: biochemical, bovine
T1 construct: PDE IV IC50; other: Type IV PDE isolated from bovine tracheal smooth muscle; rolipram run in the
Excerpt: The PDE IV inhibitory compounds of the present invention may be examined for their PDE IV inhibitory effects via the techniques set forth in the following examples, wherein the ability of the compounds to inhibit PDE IV isolated from bovine tracheal smooth muscle is set forth.
The Type IV PDE is isolated from bovine tracheal smooth muscle using a procedure similar to that previously described by Silver, P. J. et al., Eur. J. Pharmacol. 150:85,1988.(1). Briefly, smooth muscle from bovine trachea is minced and homogenized using a polytron in 10 volumes of an extraction buffer containing 10 mM Tris-acetate (pH 7.5), 2 mM magnesium chloride, 1 mM dithiothreitol and 2,000 units/ml of aprotinin. This and all subsequent procedures are performed at 0-4° C. The homogenate is sonicated and then centrifuged at 48,000×g for 30 minutes. The resulting supernatant is applied to a DEAE Trisacryl M column previously equilibrated with sodium acetate and dithiothreitol. After applications of the sample, the column is washed with sodium acetate/dithiothreitol, after whlich the different forms of PDE are eluted from the column using a linear Tris-HCl/NaCl gradient. Fractions containing Type IV PDE are collected, dialyzed and concentrated to 14% of the original volume. The concentrated fractions are diluted to 50% with ethylene glycol and stored at −20° C.
(§1) Enzyme activity is assessed by measuring the hydrolysis of [^3H]-cyclic AMP, as described by Thompson, W. J. et al., Adv. Cyclic Nucleotide Res. 10:69, 1979. The cyclic AMP concentration used in this assay is 0.2 μM, which approximates the Km value. Protein concentration is adjusted to ensure that no more than 15% of the available substrate is hydrolyzed during the incubation period.
(§2) All test compounds are dissolved in dimethyl sulfoxide (final concentration of 2.5%). This concentration of dimethyl sulfoxide inhibits enzyme activity by approximately 10%.

PDE III = target: T2, PDE III (Homo sapiens, UniProt Q14432); assay: Type III PDE inhibition, hydrolysis of [3H]-cyclic AMP; format: biochemical; conditions: Type III PDE isolated from human platelets; 0.2 μM cyclic AMP
T2 construct: Fractions containing PDE III activity are pooled and dialyzed overnight; from tissue; host or cells: human platelets
Protocol: The Type III PDE is isolated from human platelets using a procedure similar to that previously described by Washer, R. E. et al., Biochem. Pharmacol., 35:787, 1986. Briefly, 1-2 units of platelets are suspended in an equal volume of buffer (20 mM Tris-HCl, pH 7.5, containing 2 mM magnesium acetate, 1 mM dithiothreitol, and 5 mM Na2EDTA). The proteinase inhibitor phenylmethyl-sulfonyl fluoride (PMSF) is also included in this buffer at a final concentration of 200 μM. The suspension is homogenized using a polytron and the homogenate centrifuged at 100,000×g for 60 minutes. This and all subsequent procedures are performed at 0-4° C. The supernatant is then filtered through four layers of gauze and applied to a DEAE-Trisacryl M column, previously equilibrated with buffer B (20 mM Tris-HCl, pH 7.5, containing 1 mM magnesium acetate, 1 mM dithiothreitol and 200 μM PMSF). After application of the sample, the column is washed with several bed volumes of buffer B, after which the different forms of PDE are eluted from the column using two successive linear NaCl gradients (0.05-0.15 M, 300 ml total; 0.15-0.40 M, 200 ml total). Five ml fractions are collected and assayed for cyclic AMP and cyclic GMP PDE activity. Fractions containing PDE III activity are pooled and dialyzed overnight against 4 L of buffer B. The dialyzed PDE III is then concentrated to 10% of the original volume, diluted to 50% with ethylene glycol monoethyl ether and stored at −20° C. PDE III can typically be retained for up to four weeks with little or no loss of activity.
as §1, with “approximates to” for “approximates”
as §2

PDE IV [2] = conditions: cited from earlier work
[3] = Type IV PDE isolated from bovine tracheal smooth muscle, 0.2 μM cyclic AMP, read-out: PDE IV IC50

T2 sequence (Q14432 whole entry): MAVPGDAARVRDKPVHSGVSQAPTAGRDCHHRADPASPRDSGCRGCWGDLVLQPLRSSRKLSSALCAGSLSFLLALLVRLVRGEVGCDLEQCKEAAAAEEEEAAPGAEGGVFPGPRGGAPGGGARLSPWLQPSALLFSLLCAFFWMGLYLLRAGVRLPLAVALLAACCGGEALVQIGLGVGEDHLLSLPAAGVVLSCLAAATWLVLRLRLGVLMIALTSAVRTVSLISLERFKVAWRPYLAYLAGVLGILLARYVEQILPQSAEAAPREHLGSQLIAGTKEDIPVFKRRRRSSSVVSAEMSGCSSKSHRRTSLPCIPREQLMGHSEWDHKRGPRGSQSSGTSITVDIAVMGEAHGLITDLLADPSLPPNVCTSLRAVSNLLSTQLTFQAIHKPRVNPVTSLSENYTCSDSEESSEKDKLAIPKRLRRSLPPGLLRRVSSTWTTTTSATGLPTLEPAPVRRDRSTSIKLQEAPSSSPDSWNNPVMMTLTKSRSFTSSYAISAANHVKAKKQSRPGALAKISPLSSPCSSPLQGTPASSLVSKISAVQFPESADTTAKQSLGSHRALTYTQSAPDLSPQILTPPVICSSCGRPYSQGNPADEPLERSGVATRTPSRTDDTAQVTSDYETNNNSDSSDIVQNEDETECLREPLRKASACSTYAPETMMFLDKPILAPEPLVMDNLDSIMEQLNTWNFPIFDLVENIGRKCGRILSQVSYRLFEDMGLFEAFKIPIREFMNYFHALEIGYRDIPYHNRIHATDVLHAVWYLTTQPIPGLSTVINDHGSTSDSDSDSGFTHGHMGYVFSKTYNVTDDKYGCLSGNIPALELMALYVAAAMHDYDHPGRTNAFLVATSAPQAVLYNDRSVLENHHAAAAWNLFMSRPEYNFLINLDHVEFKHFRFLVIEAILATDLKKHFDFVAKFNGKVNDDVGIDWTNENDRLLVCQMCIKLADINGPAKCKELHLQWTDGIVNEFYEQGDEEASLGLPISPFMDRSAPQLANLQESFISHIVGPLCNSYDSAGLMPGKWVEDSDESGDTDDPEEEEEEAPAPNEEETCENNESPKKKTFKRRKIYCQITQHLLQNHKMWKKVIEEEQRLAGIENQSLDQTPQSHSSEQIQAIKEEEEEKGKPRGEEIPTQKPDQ

| SMILES | melting point | IC50 (PDE IV [1]; [3]) | IC50 (PDE III) | also measured |
| --- | --- | --- | --- | --- |
| CC(=O)CCc1cc(Cl)cc2nc(-c3ccccc3Cl)oc12 [Example 9, 4-(5-Chloro-2-(2-chlorophenyl)benzoxazol-7-yl)butan-2-one] | 109 to 110 °C | 0.6 µM | > 300 µM |  |
| COc1ccc(Cc2nc3cc(Cl)cc(CC=O)c3o2)cc1OC1CCCC1 [Example 25, 2-(3-Cyclopentyloxy-4-methoxybenzyl)-5-chlorobenzoxazole-7-ethanal] | 66 to 68 °C | 0.65 µM | 118 µM |  |
| COc1ccc(Cc2nc3cc(Cl)cc(CC=NO)c3o2)cc1OC1CCCC1 [Example 26, 2-(3-Cyclopentyloxy-4-methoxybenzyl)-5-chlorobenzoxazole-7-ethanal Oxime] | 149 to 151 °C | 0.37 µM | 11.4 µM |  |
| OCCCc1cccc2nc(Cc3ccccc3Cl)oc12 [Example 41, 2-(2-Chlorobenzyl)-7-(3-hydroxy-1-propyl)Benzoxazole] |  | 69.3 µM | 100 µM |  |
| OCCCc1cc(Cl)cc2nc(Cc3cccc(Cl)c3)oc12 [Example 42, 3-[5-Chloro-2-(3-chlorobenzyl)benzoxazol-7-yl]propan-1-ol] |  | 16 µM | 48.6 µM |  |
| COc1ccc(CCc2nc3cc(Cl)ccc3o2)cc1OC [Example 43, 5-Chloro-2-[2-(3,4-dimethoxyphenyl)ethyl]Benzoxazole] |  | 16.3 µM | > 300 µM |  |
| COc1ccc(-c2nc3cc(Cl)ccc3o2)cc1OC [Example 44, 5-Chloro-2-(3,4-dimethoxyphenyl)Benzoxazole] |  | 19.3 µM | > 300 µM |  |
| CC(C)(C)c1cc(Cc2nc3ccccc3o2)cc(C(C)(C)C)c1O [Example 45, 2-[4-Hydroxy-3,5-di-t-butyl-benzyl]Benzoxazole] |  | 19.5 µM | 72.4 µM |  |
| COC(=O)c1cccc2oc(Cc3cc(C(C)(C)C)c(O)c(C(C)(C)C)c3)nc12 [Example 46, 2-[4-Hydroxy-3,5-di-t-butyl-benzyl]-4-carbomethoxybenzoxazole] |  | 21.5 µM | 702 µM |  |
| CC(C)(C)c1cc(CCc2nc3ccccc3o2)cc(C(C)(C)C)c1O [Example 47, 2-[2-(4-Hydroxy-3,5-di-t-butyl-phenyl)]Ethylbenzoxazole] |  | 91.5 µM | > 300 µM |  |
| NC(=O)CCc1cc(Cl)cc2nc(Cc3ccccc3Cl)oc12 [Example 55(a), 5-Chloro-2-(2-chlorobenzyl)-benzoxazole-7-propanamide] | 181 to 183 °C |  |  |  |
| CC(=O)Oc1c(C(C)(C)C)cc(CCc2nc3cc(Cl)cc(CCc4ccccn4)c3o2)cc1C(C)(C)C [Example 58(b), 2-[2-(4-acetoxy-3,5-di-t-butyl-phenyl)ethyl]-5-chloro-7-[2-(2-pyridyl)ethyl]-benzoxazole] | 134 to 135 °C |  |  |  |
| Clc1cc(C#Cc2nccs2)c2oc(Cc3ccccc3Cl)nc2c1 [Example 59(a), 5-chloro-2-(2-chlorobenzyl)-7-[2-(2-thiazolyl)ethynyl]-benzoxazole] | 149 to 151 °C |  |  |  |
| OCCCCCc1cc(Cl)cc2nc(Cc3ccccc3Cl)oc12 [Example 60(b), 5-chloro-2-(2-chlorobenzyl)-7-(5-hydroxypentyl)-benzoxazole] | 72 to 79 °C |  |  |  |
| COc1ccc(Cc2nc3cccc(CCCO)c3o2)cc1OC [Example 61, 2-(3,4-dimethoxybenzyl)-7-(3-hydroxy-propyl)-benzoxazole] | 95 to 97 °C |  |  |  |
| COc1ccc(C2CNC(=O)C2)cc1OC1CCCC1 (stereo not shown) [Rolipram, reference compound] |  |  |  | IC50 (PDE IV [2]; historically considered value, read-out: PDE IV IC50, historical value): 3.5 µM; IC50 (PDE IV [1]; read-out: concentration which yields 50% inhibition of PDE IV (IC50), value of the description, rolipram run in the same assay): 2.8 µM |
| Cn1c(=O)c2[nH]cnc2n(C)c1=O [theophylline] |  |  |  | IC50 (PDE IV [2]; read-out: concentration giving 50% inhibition of PDE IV, stated in the description without a test): ~350 µM |
